Measured values as given in ChEMBL document CHEMBL3132777, “Novel proteinprotein interaction inhibitor of Nrf2Keap1 discovered by structure-based virtual screening” (Medchemcomm, 2014).
Activity calls are given as the source filed them. The rule behind the calls is not given here.

Columns and labels:
[1] = system: HepG2; test: Induction of Nrf2 transcription activity in human HepG2-ARE-C8 cells assessed as ARE gene expression at 20 to 100 uM after 12 hrs by cell-based luciferase reporter assay; type: functional
[2] = system: HepG2; test: Induction of Nrf2 transcription activity in human HepG2-ARE-C8 cells assessed as ARE gene expression at 20 to 100 uM after 24 hrs by cell-based luciferase reporter assay; type: functional
[3] = system: HepG2; test: Induction of Nrf2 transcription activity in human HepG2-ARE-C8 cells assessed as ARE gene expression after 12 to 24 hrs by cell-based luciferase reporter assay; type: functional
[4] = molecular target: Kelch-like ECH-associated protein 1 (Homo sapiens, UniProt Q14145); test: Inhibition of FITC-9mer Nrf2 peptide amide/Keap1 Kelch domain (unknown origin) interaction after 30 mins by fluorescence polarization assay
Chain of Kelch-like ECH-associated protein 1 (Q14145 whole entry, the tested form may be a part): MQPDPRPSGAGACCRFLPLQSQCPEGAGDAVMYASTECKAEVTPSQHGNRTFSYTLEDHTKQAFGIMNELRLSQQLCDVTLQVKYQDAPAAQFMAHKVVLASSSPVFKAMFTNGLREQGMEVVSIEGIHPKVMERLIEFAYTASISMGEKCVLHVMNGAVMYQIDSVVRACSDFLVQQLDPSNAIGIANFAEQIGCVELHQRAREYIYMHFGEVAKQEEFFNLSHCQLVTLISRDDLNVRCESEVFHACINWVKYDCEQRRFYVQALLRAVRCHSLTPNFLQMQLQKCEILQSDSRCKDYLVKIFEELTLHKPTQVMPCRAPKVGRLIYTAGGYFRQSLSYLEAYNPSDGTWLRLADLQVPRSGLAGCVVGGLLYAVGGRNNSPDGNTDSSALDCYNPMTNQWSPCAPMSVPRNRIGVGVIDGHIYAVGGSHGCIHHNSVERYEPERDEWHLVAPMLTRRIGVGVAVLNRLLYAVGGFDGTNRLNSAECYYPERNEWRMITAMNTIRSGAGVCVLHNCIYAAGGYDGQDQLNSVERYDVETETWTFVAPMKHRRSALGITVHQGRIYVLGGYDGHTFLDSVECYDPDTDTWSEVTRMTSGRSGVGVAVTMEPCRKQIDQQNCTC

[5] = system: HepG2; test: Induction of Nrf2 transcription activity in human HepG2-ARE-C8 cells assessed as increase in ARE gene expression at 200 uM by cell-based luciferase reporter assay relative to untreated control; type: functional
[6] = system: HepG2; test: Cytotoxicity against human HepG2-ARE-C8 cells at 200 uM; type: cell-based; settings: hepg2, 200 µM

SMILES | Activity [1] | Activity [2] | Activity [3] | EC50 [4] [µM] | fold change (FC) [5] | Activity [6]
CC(C)(C)c1cc(O)ccc1O | Active | inactive |  |  |  | 
O=C(N/N=C/c1ccc(-c2ccc(C(=O)O)cc2)o1)N/N=C/c1ccc(-c2ccc(C(=O)O)cc2)o1 |  |  | Dose-dependent effect | 9.8 | 10 | Non-toxic
